Results published in patent US7138361B2, “Herbicidal heterocycles” (E. I. du Pont de Nemours and Company, priority 2000, dated 2006).

Key:
Type in all cases: in vivo
[1] = test system: Surinam grass (Brachiaria decumbens); assay: Test C postemergence
In short: (§1)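 Visual 0–100 rating vs controls (0 = no effect, 100 = complete control) at 12–14 d, greenhouse. Compounds in non-phytotoxic solvent + surfactant; pre: sprayed after seeding; post: 1–4-leaf plants, 2–18 cm.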

[2] = test system: bermudagrass (Cynodon dactylon); assay: Test C postemergence
In short: as §1

[3] = test system: chickweed (Stellaria media); assay: Test C postemergence
In short: as §1

[4] = test system: cocklebur (Xanthium strumarium); assay: Test C postemergence
In short: as §1

[5] = test system: common ragweed (Ambrosia elatior); assay: Test C postemergence
In short: as §1

[6] = test system: corn (Zea mays); assay: Test C postemergence
In short: as §1

[7] = test system: crabgrass (Digitaria sanguinalis); assay: Test C postemergence
In short: as §1

[8] = test system: giant foxtail (Setaria faberii); assay: Test C postemergence; conditions: Rate 250 g/ha, scale 0 to 100 (0 no effect, 100 complete control)
In short: as §1

[9] = test system: goosegrass (Eleusine indica); assay: Test C postemergence
In short: as §1

[10] = test system: johnsongrass (Sorghum halepense); assay: Test C postemergence
In short: as §1

[11] = test system: kochia (Kochia scoparia); assay: Test C postemergence
In short: as §1

[12] = test system: lambsquarters (Chenopodium album); assay: Test C postemergence
In short: as §1

[13] = test system: morningglory (Ipomoea hederacea); assay: Test C postemergence
In short: as §1

[14] = test system: pigweed (Amaranthus retroflexus); assay: Test C postemergence
In short: as §1

[15] = test system: soybean (Glycine max); assay: Test C postemergence
In short: as §1

[16] = test system: velvetleaf (Abutilon theophrasti); assay: Test C postemergence
In short: as §1

[17] = test system: woolly cupgrass (Eriochloa villosa); assay: Test C postemergence
In short: as §1

[18] = test system: yellow nutsedge (Cyperus esculentus); assay: Test C postemergence
In short: as §1

[19] = test system: rice (Oryza saliva); assay: Test C flooded paddy test; conditions: for Plant response rating, Rice: scale 0 to 100 (0 no effect, 100 complete control)
In short: (§2)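 2-leaf-stage plants, flooded paddy; treated; greenhouse 12–14 days; compared with controls by eye; rated 0–100 (0 none, 100 complete control).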

[20] = test system: smallflower flatsedge (Cyperus difformis); assay: Test C flooded paddy test; conditions: for Plant response rating, Flatsedge: scale 0 to 100 (0 no effect, 100 complete control)
In short: as §2

[21] = Rate 125 g/ha, scale 0 to 100, 0 no effect, 100 complete control
[22] = Rate 250 g/ha, scale 0 to 100 (0 no effect, 100 complete control)
[23] = Rate 500 g/ha, scale 0 to 100 (0 no effect, 100 complete control)
[24] = Flooded Paddy, Rate 500 g/ha, scale 0 to 100, 0 no effect, 100 complete control
[25] = flooded paddy test, Rate 125 g/ha
[26] = flooded paddy test, Rate 250 g/ha
[27] = flooded paddy test, Rate 62 g/ha, visually evaluated after 12 to 14 days, 0 = no effect, 100 = complete control

SMILES: COc1cc(N2CCC(n3ccc(C(C)(C)C)n3)C2=O)ccc1Br (stereo not shown) [Compound 141]
- Plant response rating, Surinam grass ([1]; Rate 62 g/ha, scale 0 to 100): 20
- Plant response rating, Surinam grass [1, 21]: 40
- Plant response rating, Surinam grass [1, 22]: 60
- Plant response rating, Surinam grass [1, 23]: 60
- Plant response rating, Bermudagrass ([2]; Rate 62 g/ha, scale 0 to 100): 40
- Plant response rating, Bermudagrass [2, 21]: 60
- Plant response rating, Bermudagrass [2, 22]: 60
- Plant response rating, Bermudagrass [2, 23]: 100
- Plant response rating, Chickweed ([3]; Rate 62 g/ha, scale 0 to 100): 90
- Plant response rating, Chickweed [3, 21]: 100
- Plant response rating, Chickweed [3, 22]: 100
- Plant response rating, Chickweed [3, 23]: 100
- Plant response rating, Cocklebur ([4]; Rate 62 g/ha, scale 0 to 100): 70
- Plant response rating, Cocklebur [4, 22]: 70
- Plant response rating, Cocklebur [4, 23]: 100
- Plant response rating, Ragweed, Common ([5]; Rate 62 g/ha, scale 0 to 100): 20
- Plant response rating, Ragweed, Common [5, 22]: 80
- Plant response rating, Ragweed, Common [5, 23]: 90
- Plant response rating, Corn ([6]; Rate 62 g/ha, scale 0 to 100): 0
- Plant response rating, Corn [6, 22]: 0
- Plant response rating, Corn [6, 23]: 0
- Plant response rating, Corn ([6]; scale 0 to 100): 0
- Plant response rating, Crabgrass ([7]; Rate 62 g/ha, scale 0 to 100): 60
- Plant response rating, Crabgrass [7, 22]: 60
- Plant response rating, Crabgrass [7, 23]: 70
- Plant response rating, Foxtail, Giant [8]: 80
- Plant response rating, Goosegrass ([9]; Rate 62 g/ha, scale 0 to 100): 20
- Plant response rating, Goosegrass [9, 22]: 50
- Plant response rating, Goosegrass [9, 23]: 70
- Plant response rating, Johnsongrass ([10]; Rate 62 g/ha, scale 0 to 100): 20
- Plant response rating, Johnsongrass [10, 22]: 30
- Plant response rating, Johnsongrass [10, 23]: 40
- Plant response rating, Johnsongrass ([10]; rate not given, scale 0 to 100): 30
- Plant response rating, Kochia ([11]; Rate 62 g/ha, scale 0 to 100): 10
- Plant response rating, Kochia [11, 22]: 80
- Plant response rating, Kochia [11, 23]: 90
- Plant response rating, Lambsquarters ([12]; Rate 62 g/ha, scale 0 to 100): 70
- Plant response rating, Lambsquarters [12, 23]: 100
- Plant response rating, Morningglory ([13]; Rate 62 g/ha, scale 0 to 100): 70
- Plant response rating, Morningglory [13, 23]: 100
- Plant response rating, Pigweed ([14]; Rate 62 g/ha, scale 0 to 100): 70
- Plant response rating, Pigweed [14, 22]: 70
- Plant response rating, Pigweed [14, 23]: 100
- Plant response rating, Soybean ([15]; Rate 62 g/ha, scale 0 to 100): 90
- Plant response rating, Soybean [15, 22]: 100
- Plant response rating, Soybean [15, 23]: 100
- Plant response rating, Velvetleaf ([16]; Rate 62 g/ha, scale 0 to 100): 50
- Plant response rating, Velvetleaf [16, 22]: 50
- Plant response rating, Velvetleaf [16, 23]: 80
- Plant response rating, Velvetleaf ([16]; scale 0 to 100): 50
- Plant response rating, Cupgrass, Woolly ([17]; Rate 62 g/ha, scale 0 to 100): 30
- Plant response rating, Cupgrass, Woolly [17, 22]: 50
- Plant response rating, Cupgrass, Woolly [17, 23]: 70
- Plant response rating, Nutsedge ([18]; Rate 62 g/ha, scale 0 to 100): 0
- Plant response rating, Nutsedge [18, 22]: 0
- Plant response rating, Nutsedge [18, 23]: 0
- Rice plant response rating [19, 24]: 35
- Plant response rating, Rice [19, 25]: 25
- Plant response rating, Rice [19, 26]: 30
- Plant response rating (scale 0 to 100), Rice [19, 27]: 0
- Flatsedge plant response rating [20, 24]: 95
- Plant response rating, Flatsedge [20, 25]: 90
- Plant response rating, Flatsedge [20, 26]: 95
- Plant response rating (scale 0 to 100), Flatsedge [20, 27]: 90
